Source: US9845295B2, “Triphenylethylene compounds and uses thereof” (Purdue Research Foundation, priority 2015, dated 2017)

Key:
recombinant human ER-α = molecular target: T1, recombinant human ER-α (Homo sapiens, UniProt P03372); test: Binding affinity for recombinant human ER-α (fluorescence polarization, ES2 displacement); details: for IC50: read-out: binding affinities for ER-α (IC50)
T1 construct: purchased Invitrogen (Carlsbad, Calif.)
T1 sequence (P03372 1-595): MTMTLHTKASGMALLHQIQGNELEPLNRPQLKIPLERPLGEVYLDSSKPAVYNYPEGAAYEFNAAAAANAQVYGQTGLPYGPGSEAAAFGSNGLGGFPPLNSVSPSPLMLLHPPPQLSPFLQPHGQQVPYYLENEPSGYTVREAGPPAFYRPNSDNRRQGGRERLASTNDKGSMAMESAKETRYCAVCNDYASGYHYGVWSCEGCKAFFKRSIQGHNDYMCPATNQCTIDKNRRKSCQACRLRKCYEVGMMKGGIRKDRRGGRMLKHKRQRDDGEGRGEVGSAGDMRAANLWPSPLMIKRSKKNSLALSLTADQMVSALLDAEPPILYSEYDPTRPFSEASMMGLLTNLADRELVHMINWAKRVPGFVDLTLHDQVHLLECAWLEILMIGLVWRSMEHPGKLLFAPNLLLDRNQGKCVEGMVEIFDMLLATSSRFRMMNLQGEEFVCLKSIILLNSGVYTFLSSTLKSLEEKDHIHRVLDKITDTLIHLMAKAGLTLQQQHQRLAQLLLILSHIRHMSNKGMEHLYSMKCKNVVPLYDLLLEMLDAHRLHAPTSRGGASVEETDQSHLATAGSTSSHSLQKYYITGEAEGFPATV
Procedure: (§1) Binding Affinities for Recombinant Human ER-α and ER-β.
(§2) The binding affinities of ER-α and ER-β were determined by measuring the change of polarization value when the fluorescent estrogen ligand, ES2, was displaced by the tested compounds. Experimental procedures were consistent with the protocol provided by Invitrogen. The fluorescent estrogen ligand, ES2, was provided in methanol/water (4:1, v/v) with the concentration of 1800 nM. Recombinant human ER-α and ER-β were provided in buffer (50 mM bis-tris propane, 400 mM KCl, 2 mM DTT, 1 mM EDTA and 10% glycerol), with the concentration of 734 nM and 3800 nM, respectively. All tested samples were dissolved in either methanol or DMSO. The sample solutions (1 pt) were mixed well with 49 pt of ES2 screening buffer (100 mM potassium phosphate, 100 μg/mL BGG and 0.02% NaN3). The ER-α/ES2 complex was prepared with the fluorescent estrogen ligand ES2, human recombinant ER and ES2 screening buffer with the concentrations of 9 nM ES2 and 30 nM ER-α. The ER-β/ES2 complex was prepared with the fluorescent estrogen ligand ES2, human recombinant ER-β and ES2 screening buffer with the concentrations of 9 nM ES2 and 20 nM ER-ft Reactions were initiated by adding ER/ES2 complex (50 μL) to bring the incubation volume to 100 μL and incubated for 2 h avoiding light. […] Excitation-emission wavelengths for fluorescence polarization were […]. The polarization values in the presence of the test competitors were compared with those in control, in which the competitor was replaced with vehicle. The extent of competition was expressed as the percentage of remaining polarization compared to the control.

[1] = molecular target: T2, recombinant human aromatase (CYP19) (Homo sapiens, UniProt P11511); test: Inhibition of recombinant human aromatase (CYP19) by microsomal incubations (MFC fluorometric substrate); format: biochemical; details: for aromatase percent inhibition: at 50000 nM compound, 50 µM; for times more potent than 7 against aromatase: ratio of IC50 values vs compound 7
T2 construct: purchased BD Biosciences (San Jose, Calif.)
T2 sequence (P11511 1-503): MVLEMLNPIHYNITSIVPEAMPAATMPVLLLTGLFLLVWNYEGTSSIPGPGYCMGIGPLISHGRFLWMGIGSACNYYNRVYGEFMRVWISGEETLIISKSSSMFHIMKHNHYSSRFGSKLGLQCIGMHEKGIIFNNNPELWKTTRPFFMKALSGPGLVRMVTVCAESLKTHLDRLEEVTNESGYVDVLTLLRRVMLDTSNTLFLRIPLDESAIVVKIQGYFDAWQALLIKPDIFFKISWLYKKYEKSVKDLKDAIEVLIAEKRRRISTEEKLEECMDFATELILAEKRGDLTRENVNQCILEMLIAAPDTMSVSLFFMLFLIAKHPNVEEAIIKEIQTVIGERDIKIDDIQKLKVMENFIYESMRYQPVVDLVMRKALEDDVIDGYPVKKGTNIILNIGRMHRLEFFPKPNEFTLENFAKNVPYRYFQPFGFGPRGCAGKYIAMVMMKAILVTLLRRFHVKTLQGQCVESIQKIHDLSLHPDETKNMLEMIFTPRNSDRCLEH
Procedure: Inhibition of Recombinant Human Aromatase (CYP19) by Microsomal Incubations.
All tested samples were dissolved in either methanol or DMSO. […] All the reactions were stopped by adding 0.1 M tris base dissolved in acetonitrile (75 μL). […] The extent of enzyme inhibition was expressed as the percentage of remaining enzyme activity compared to the control.

recombinant human ER-β = molecular target: T3, recombinant human ER-β (Homo sapiens, UniProt Q92731); test: Binding affinity for recombinant human ER-β (fluorescence polarization, ES2 displacement); details: for IC50: read-out: binding affinities for ER-β (IC50); for inhibition at 100 µM: 2 h, at 100000 nM compound, read-out: ER-β percent competition
T3 construct: purchased Invitrogen (Carlsbad, Calif.)
Procedure: as §1, §2

[2] = Table 1, mean of at least three experiments
[3] = Table 1, determined only for compounds with >90% competition
[4] = Table 2, determined for compounds with inhibition higher than 90%

T3 sequence (Q92731 whole entry): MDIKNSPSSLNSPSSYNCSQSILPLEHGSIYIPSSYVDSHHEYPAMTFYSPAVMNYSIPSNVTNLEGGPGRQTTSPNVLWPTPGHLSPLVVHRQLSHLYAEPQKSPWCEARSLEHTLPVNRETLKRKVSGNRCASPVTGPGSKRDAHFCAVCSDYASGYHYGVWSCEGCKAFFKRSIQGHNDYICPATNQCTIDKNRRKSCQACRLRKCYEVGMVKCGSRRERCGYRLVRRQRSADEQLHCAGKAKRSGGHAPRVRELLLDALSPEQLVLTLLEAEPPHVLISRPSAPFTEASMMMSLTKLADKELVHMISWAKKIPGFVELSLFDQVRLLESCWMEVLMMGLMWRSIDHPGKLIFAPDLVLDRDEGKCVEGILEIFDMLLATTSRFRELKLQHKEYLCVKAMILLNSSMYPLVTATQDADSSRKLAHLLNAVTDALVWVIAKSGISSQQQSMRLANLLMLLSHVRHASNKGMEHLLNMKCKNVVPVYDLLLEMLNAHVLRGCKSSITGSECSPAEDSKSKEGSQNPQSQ

N#CCC(=C(c1ccc(O)cc1)c1ccc(O)cc1)c1ccc(O)cc1 [Compound 17a, 3,4,4-Tris(4-hydroxyphenyl)but-3-enenitrile]
ER-α percent competition (recombinant human ER-α; Table 1, at 100 μM compound): 0% competition | IC50 [1, 2]: 15200 ± 300 nM

Oc1ccc(C(Cn2ccnc2)=C(c2ccc(O)cc2)c2ccc(O)cc2)cc1 [Compound 18a, 4,4′,4″-(3-(1H-Imidazol-1-yl)prop-1-ene-1,1,2-triyl)triphenol]
EC50 (recombinant human ER-β; [3]): 73.6 ± 29.9 nM | IC50 (recombinant human ER-β): 56.3 to 73.6 nM | EC50 (recombinant human ER-α; [3]): 97.8 ± 42.3 nM | IC50 (recombinant human ER-α): 85.2 to 97.8 nM | IC50 [1, 2]: 60 ± 4.1 nM

Oc1ccc(C(=C(Cn2ccnc2)c2ccc(O)c(F)c2)c2ccc(O)cc2)cc1 [Compound 18b, 4,4′-(2-(3-Fluoro-4-hydroxyphenyl)-3-(1H-imidazol-1-yl)prop-1-ene-1,1-diyl)diphenol]
EC50 (recombinant human ER-β; [3]): 56.3 ± 17.8 nM | IC50 (recombinant human ER-β): 56.3 to 73.6 nM | EC50 (recombinant human ER-α; [3]): 85.2 ± 14.2 nM | IC50 (recombinant human ER-α): 85.2 to 97.8 nM | IC50 [1, 2]: 94.4 ± 3.5 nM

Oc1ccc(C(Cn2cncn2)=C(c2ccc(O)cc2)c2ccc(O)cc2)cc1 [Compound 19a, 4,4′,4″-(3-(1H-1,2,4-Triazol-1-yl)prop-1-ene-1,1,2-triyl)triphenol]
ER-α percent competition (recombinant human ER-α; Table 1, at 100 μM compound): 45% competition | IC50 [1, 2]: 3030 ± 150 nM

Oc1ccc(C(=C(Cn2cncn2)c2ccc(O)c(F)c2)c2ccc(O)cc2)cc1 [Compound 19b, 4,4′-(2-(3-Fluoro-4-hydroxyphenyl)-3-(1H-1,2,4-triazol-1-yl)prop-1-ene-1,1-diyl)diphenol]
ER-α percent competition (recombinant human ER-α; Table 1, at 100 μM compound): 2% competition | IC50 [1, 2]: 2980 ± 50 nM

Oc1ccc(C(Cn2cnnc2)=C(c2ccc(O)cc2)c2ccc(O)cc2)cc1 [Compound 20a, 4,4′,4″-(3-(4H-1,2,4-Triazol-4-yl)prop-1-ene-1,1,2-triyl)triphenol]
EC50 (recombinant human ER-β; [3]): 1080 ± 100 nM | EC50 (recombinant human ER-α; [3]): 943 ± 285 nM | IC50 [1, 2]: 12500 ± 400 nM

Oc1ccc(C(=C(Cn2cnnc2)c2ccc(O)c(F)c2)c2ccc(O)cc2)cc1 [Compound 20b, 4,4′-(2-(3-Fluoro-4-hydroxyphenyl)-3-(4H-1,2,4-triazol-4-yl)prop-1-ene-1,1-diyl)diphenol]
ER-α percent competition (recombinant human ER-α; Table 1, at 100 μM compound): 0% competition | IC50 [1, 2]: 14200 ± 1100 nM

Nc1ccc(C(Cn2ccnc2)=C(c2ccc(O)cc2)c2ccc(O)cc2)cc1 [Compound 26, 4,4′-(2-(4-Aminophenyl)-3-(1H-imidazol-1-yl)prop-1-ene-1,1-diyl)diphenol]
EC50 (recombinant human ER-β; [3]): 296 ± 154 nM | EC50 (recombinant human ER-α; [3]): 1830 ± 910 nM | IC50 [1, 2]: 5.24 ± 0.41 nM

Nc1ccc(C(Cn2cncn2)=C(c2ccc(O)cc2)c2ccc(O)cc2)cc1 [Compound 27, 4,4′-(2-(4-Aminophenyl)-3-(1H-1,2,4-triazol-1-yl)prop-1-ene-1,1-diyl)diphenol]
ER-α percent competition (recombinant human ER-α; Table 1, at 100 μM compound): 0% competition | IC50 [1, 2]: 104 ± 9 nM

Nc1ccc(C(Cn2cnnc2)=C(c2ccc(O)cc2)c2ccc(O)cc2)cc1 [Compound 28, 4,4′-(2-(4-Aminophenyl)-3-(4H-1,2,4-triazol-4-yl)prop-1-ene-1,1-diyl)diphenol]
ER-α percent competition (recombinant human ER-α; Table 1, at 100 μM compound): 13% competition | IC50 [1, 2]: 17.7 ± 1.2 nM

Oc1ccc(C(=C(Cn2ccnc2)c2cccc(O)c2)c2ccc(O)cc2)cc1 [Compound 32, 4,4′-(2-(3-Hydroxyphenyl)-3-(1H-imidazol-1-yl)prop-1-ene-1,1-diyl)diphenol]
ER-α percent competition (recombinant human ER-α; Table 1, at 100 μM compound): 0% competition | IC50 [1, 2]: 60.4 ± 1.7 nM

Nc1cccc(C(Cn2ccnc2)=C(c2ccc(O)cc2)c2ccc(O)cc2)c1 [Compound 35, 4,4′-(2-(3-Aminophenyl)-3-(1H-imidazol-1-yl)prop-1-ene-1,1-diyl)diphenol]
ER-α percent competition (recombinant human ER-α; Table 1, at 100 μM compound): 60% competition | IC50 [1, 2]: 439 ± 16 nM

CC(=C(c1ccc(O)cc1)c1ccc(O)cc1)c1ccc([N+](=O)[O-])cc1 [Compound 37a, 4-(1-(4-Hydroxyphenyl)-2-(4-nitrophenyl)prop-1-enyl)phenol]
inhibition at 100 µM (recombinant human ER-β; Table 2): 55% | ER-α percent competition (recombinant human ER-α; Table 2, at 100000 nM compound): 19% competition | aromatase percent inhibition ([1]; Table 2): 75 % inhibition

CCC(=C(c1ccc(O)cc1)c1ccc(O)cc1)c1ccc([N+](=O)[O-])cc1 [Compound 37b, 4-(1-(4-Hydroxyphenyl)-2-(4-nitrophenyl)but-1-enyl)phenol]
inhibition at 100 µM (recombinant human ER-β; Table 2): 66% | ER-α percent competition (recombinant human ER-α; Table 2, at 100000 nM compound): 40% competition | aromatase percent inhibition ([1]; Table 2): 78 % inhibition

CC(=C(c1ccc(N)cc1)c1ccc(N)cc1)c1ccc([N+](=O)[O-])cc1 [Compound 37c, 4-(1-(4-Aminophenyl)-2-(4-nitrophenyl)prop-1-enyl)benzenamine]
EC50 (recombinant human ER-β; Table 2): 486 ± 240 nM | EC50 (recombinant human ER-α; Table 2): 213 ± 53.7 nM | IC50 [1, 4]: 221 nM | times more potent than 7 against aromatase [1]: about 113 times

CCC(=C(c1ccc(N)cc1)c1ccc(N)cc1)c1ccc([N+](=O)[O-])cc1 [Compound 37d, 4-(1-(4-Aminophenyl)-2-(4-nitrophenyl)but-1-enyl)benzenamine]
EC50 (recombinant human ER-β; Table 2): 70.8 ± 5.2 nM | EC50 (recombinant human ER-α; Table 2): 72.1 ± 42.6 nM | IC50 [1, 4]: 62.2 ± 7.8 nM | times more potent than 7 against aromatase [1]: ~400 times

CC(=C(c1ccc(O)cc1)c1ccc(O)cc1)c1ccc(N)cc1 [Compound 38a, 4-(2-(4-Aminophenyl)-1-(4-hydroxyphenyl)prop-1-enyl)phenol]
EC50 (recombinant human ER-β; Table 2): 857 ± 389 nM | EC50 (recombinant human ER-α; Table 2): 11000 ± 827 nM | IC50 [1, 4]: 230 nM

CCC(=C(c1ccc(O)cc1)c1ccc(O)cc1)c1ccc(N)cc1 [Compound 38b, 4-(2-(4-Aminophenyl)-1-(4-hydroxyphenyl)but-1-enyl)phenol]
EC50 (recombinant human ER-β; Table 2): 1260 ± 424 nM | EC50 (recombinant human ER-α; Table 2): 1710 ± 630 nM | IC50 [1, 4]: 8.8 nM

CC(=C(c1ccc(N)cc1)c1ccc(N)cc1)c1ccc(N)cc1 [Compound 38c, 4-(1,2-Bis(4-aminophenyl)prop-1-enyl)benzenamine]
inhibition at 100 µM (recombinant human ER-β; Table 2): 77% | ER-α percent competition (recombinant human ER-α; Table 2, at 100000 nM compound): 31% competition | IC50 [1, 4]: 177 ± 20.2 nM

CCC(=C(c1ccc(N)cc1)c1ccc(N)cc1)c1ccc(N)cc1 [Compound 38d, 4-(1,2-Bis(4-aminophenyl)but-1-enyl)benzenamine]
inhibition at 100 µM (recombinant human ER-β; Table 2): 76% | ER-α percent competition (recombinant human ER-α; Table 2, at 100000 nM compound): 25% competition | IC50 [1, 4]: 13.4 ± 3 nM
